Measurements published in patent US20160200733A1, “SUBSTITUTED THIENO[2,3-B]PYRIDINE-2-CARBOXAMIDE ANALOGS AS POSITIVE ALLOSTERIC MODULATORS OF THE MUSCARINIC ACETYLCHOLINE RECEPTOR M4” (Vanderbilt University, priority 2013, published 2016).

Target: T1, mAChR hM4 (Homo sapiens, UniProt P08173)
T1 construct: expressed in transfected cells; host or cells: CHO-K1 (Chinese hamster ovary) cells
T1 sequence (P08173 1-479): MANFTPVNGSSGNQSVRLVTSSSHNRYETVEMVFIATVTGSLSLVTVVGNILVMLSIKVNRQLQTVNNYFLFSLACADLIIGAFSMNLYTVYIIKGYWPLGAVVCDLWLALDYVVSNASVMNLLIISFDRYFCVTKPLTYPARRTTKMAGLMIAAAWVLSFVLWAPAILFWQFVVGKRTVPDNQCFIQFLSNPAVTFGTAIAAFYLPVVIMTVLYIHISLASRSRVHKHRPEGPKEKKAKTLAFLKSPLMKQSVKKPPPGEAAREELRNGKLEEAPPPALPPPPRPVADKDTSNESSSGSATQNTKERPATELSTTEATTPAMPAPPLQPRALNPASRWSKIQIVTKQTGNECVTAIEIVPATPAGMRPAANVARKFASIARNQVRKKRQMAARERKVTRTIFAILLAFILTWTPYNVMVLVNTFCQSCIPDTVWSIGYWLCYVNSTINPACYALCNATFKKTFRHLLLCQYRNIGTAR
Assay: mAChR M4 cell-based functional assay (calcium flux, potentiation of EC20 acetylcholine response)
Conditions: mAChR hM4 cell-line; for EC50: >10,000 estimated for low potency compounds lacking a plateau; for Emax at 30 µM: % ACh maximum at 30 μM
Excerpt: In one aspect, the disclosed compounds potentiate the agonist response (e.g., acetylcholine) of mAChR M4. In a further aspect, the disclosed compounds increase mAChR M4 response to non-maximal concentrations of agonist in the presence of compound compared to the response to agonist in the absence of compound. […] For example, activation of mAChR M4 activity can be determined by measurement of calcium flux in response to agonist, e.g. acetylcholine, in cells loaded with a Ca^2+-sensitive fluorescent dye (e.g., Fluo-4). In a further aspect, the calcium flux was measured as an increase in fluorescent static ratio. In a yet further aspect, positive allosteric modulator activity was analyzed as a concentration-dependent increase in the EC20 acetylcholine response (i.e. the response of mAChR M4 at a concentration of acetylcholine that yields 20% of the maximal response).
In one aspect, the disclosed compounds activate mAChR M4 response as an increase in calcium fluorescence in mAChR M4-transfected CHO-K1 cells in the presence of the compound, compared to the response of equivalent CHO-K1 cells in the absence of the compound. […] In a further aspect, the mAChR M4-transfected CHO-K1 cells are transfected with human mAChR M4. In a still further aspect, the mAChR M4-transfected CHO-K1 cells are transfected with rat mAChR M4.
Substituted 3-aminothieno[2,3-c]pyridine-2-carboxamide analogs were synthesized as described above. Activity (EC50 and Emax) was determined in the mAChR M4 cell-based functional assay as described above, and the data are shown in Table II for assays conducted using mAChR hM4 cell-line. The compound number corresponds to the compound numbers used in Table I.

Row | Compound | EC50 [µM] | Emax at 30 µM [%]
1 | COc1ccc(CNC(=O)c2sc3nc(C)c(Cl)c(C)c3c2C2CC2)cc1 [Compound 53, 5-chloro-3-cyclopropyl-N-(4-methoxybenzyl)-4,6-dimethylthieno[2,3-b]pyridine-2-carboxamide] | > 10 | 
2 | Cc1nc2sc(C(=O)NC3COC3)c(-c3ccc4nccnc4c3)c2c(C)c1Cl [Compound 116, 5-chloro-4,6-dimethyl-N-(oxetan-3-yl)-3-(quinoxalin-6-yl)thieno[2,3-b]pyridine-2-carboxamide] | > 10 | 
3 | Cc1cc(C)c2c(C#N)c(C(=O)NCc3ccc(S(C)(=O)=O)cc3)sc2n1 [Compound 33, 3-cyano-4,6-dimethyl-N-(4-(methylsulfonyl)benzyl)thieno[2,3-b]pyridine-2-carboxamide] | > 10 | 
4 | Cc1nc2sc(C(=O)N3CC(c4ccccc4)C3)c(C3CC3)c2c(C)c1Cl [Compound 72, (5-chloro-3-cyclopropyl-4,6-dimethylthieno[2,3-b]pyridin-2-yl)(3-phenylazetidin-1-yl)methanone] | > 10 | 
5 | Cc1nc2sc(C(=O)NC3CC(F)(F)C3)c(Cl)c2c(C)c1Cl [Compound 128, 3,5-dichloro-N-(3,3-difluorocyclobutyl)-4,6-dimethylthieno[2,3-b]pyridine-2-carboxamide] | > 10 | 33
6 | COc1ccc(CNC(=O)c2sc3nc(C)c(Cl)c(C)c3c2Br)cc1 [Compound 47, 3-bromo-5-chloro-N-(4-methoxybenzyl)-4,6-dimethylthieno[2,3-b]pyridine-2-carboxamide] | > 10 | 
7 | Cc1nc2sc(C(=O)NC3[C@H]4C[C@@H]3C4)c(Cl)c2c(C)c1Cl (stereo partly drawn) [Compound 127, N-((1s,3s)-bicyclo[1.1.1]pentan-2-yl)-3,5-dichloro-4,6-dimethylthieno[2,3-b]pyridine-2-carboxamide] | > 10 | 35
8 | Cc1cc(C)c2c(Br)c(C(=O)N3Cc4ccccc4C3)sc2n1 [Compound 5, (3-bromo-4,6-dimethylthieno[2,3-b]pyridin-2-yl)(isoindolin-2-yl)methanone] | > 10 | 
9 | Cc1nc2sc(C(=O)N3CCOCC3)c(-c3cnn(C)c3)c2c(C)c1Cl [Compound 110, (5-chloro-4,6-dimethyl-3-(1-methyl-1H-pyrazol-4-yl)thieno[2,3-b]pyridin-2-yl)(morpholino)methanone] | > 10 | 
10 | COc1ccc(CNC(=O)c2sc3nc(C)cc(C)c3c2C)cc1 [Compound 17, N-(4-methoxybenzyl)-3,4,6-trimethylthieno[2,3-b]pyridine-2-carboxamide] | 2.4 | 53
11 | Cc1cc(C)c2c(C)c(C(=O)NC3CC3)sc2n1 [Compound 18, N-cyclopropyl-3,4,6-trimethylthieno[2,3-b]pyridine-2-carboxamide] | > 10 | 73
12 | Cc1nc2sc(C(=O)NC3[C@H]4C[C@H]3C4)c(-c3cnn(C)c3)c2c(C)c1Cl (stereo partly drawn) [Compound 94, N-((1R,3S)-bicyclo[1.1.1]pentan-2-yl)-5-chloro-4,6-dimethyl-3-(1-methyl-1H-pyrazol-4-yl)thieno[2,3-b]pyridine-2-carboxamide] | > 10 | 
13 | Cc1cc(C)c2c(Br)c(C(=O)NCc3ccc(S(C)(=O)=O)cc3)sc2n1 [Compound 32, 3-bromo-4,6-dimethyl-N-(4-(methylsulfonyl)benzyl)thieno[2,3-b]pyridine-2-carboxamide] | > 10 | 
14 | Cc1nc2sc(C(=O)N3CCCOCC3)c(-c3cnn(C)c3)c2c(C)c1Cl [Compound 106, (5-chloro-4,6-dimethyl-3-(1-methyl-1H-pyrazol-4-yl)thieno[2,3-b]pyridin-2-yl)(1,4-oxazepan-4-yl)methanone] | > 10 | 
15 | Cc1nc2sc(C(=O)N[C@H](C)C3CC3)c(-c3cnn(C)c3)c2c(C)c1Cl [Compound 96, (R)-5-chloro-N-(1-cyclopropylethyl)-4,6-dimethyl-3-(1-methyl-1H-pyrazol-4-yl)thieno[2,3-b]pyridine-2-carboxamide] | > 10 | 
16 | Cc1cc(C)c2c(Br)c(C(=O)NC3CCOCC3)sc2n1 [Compound 12, 3-bromo-4,6-dimethyl-N-(tetrahydro-2H-pyran-4-yl)thieno[2,3-b]pyridine-2-carboxamide] | > 10 | 

Row | Compound | EC50 [µM] | Emax at 30 µM [%]
17 | Cc1nc2sc(C(=O)N3CCCN(C)CC3)c(-c3cnn(C)c3)c2c(C)c1Cl [Compound 113, (5-chloro-4,6-dimethyl-3-(1-methyl-1H-pyrazol-4-yl)thieno[2,3-b]pyridin-2-yl)(4-methyl-1,4-diazepan-1-yl)methanone] | > 10 | 
18 | COc1ccc(C2CC2NC(=O)c2sc3nc(C)c(Cl)c(C)c3c2C2CC2)cc1 (stereo not drawn) [Compound 65, 5-chloro-3-cyclopropyl-N-(2-(4-methoxyphenyl)cyclopropyl)-4,6-dimethylthieno[2,3-b]pyridine-2-carboxamide] | > 10 | 
19 | Cc1nc2sc(C(=O)NC3COC3)c(-c3ccc4nonc4c3)c2c(C)c1Cl [Compound 114, 3-(benzo[c][1,2,5]oxadiazol-5-yl)-5-chloro-4,6-dimethyl-N-(oxetan-3-yl)thieno[2,3-b]pyridine-2-carboxamide] | > 10 | 
20 | Cc1cc(C)c2cc(C(=O)N3CCC(c4ccccc4)C3)sc2n1 (stereo not drawn) [Compound 83, (4,6-dimethylthieno[2,3-b]pyridin-2-yl)(3-phenylpyrrolidin-1-yl)methanone] | > 10 | 
21 | Cc1nc2sc(C(=O)N[C@@H](C)C3CC3)c(Cl)c2c(C)c1Cl [Compound 120, (S)-3,5-dichloro-N-(1-cyclopropylethyl)-4,6-dimethylthieno[2,3-b]pyridine-2-carboxamide] | > 10 | 
22 | Cc1nc2sc(C(=O)NC3CCC3)c(Cl)c2c(C)c1Cl [Compound 123, 3,5-dichloro-N-cyclobutyl-4,6-dimethylthieno[2,3-b]pyridine-2-carboxamide] | > 10 | 34
23 | Cc1nc2sc(C(=O)NC3CC3)c(C)c2c(C)c1Cl [Compound 60, 5-chloro-N-cyclopropyl-3,4,6-trimethylthieno[2,3-b]pyridine-2-carboxamide] | 0.38 | 79
24 | Cc1cc(C)c2c(C)c(C(=O)N[C@@H]3CCOC3)sc2n1 [Compound 25, (R)-3,4,6-trimethyl-N-(tetrahydrofuran-3-yl)thieno[2,3-b]pyridine-2-carboxamide] | > 10 | 60
25 | Cc1nc2sc(C(=O)NC3COC3)c(Br)c2c(C)c1Cl [Compound 41, 3-bromo-5-chloro-4,6-dimethyl-N-(oxetan-3-yl)thieno[2,3-b]pyridine-2-carboxamide] | 0.53 | 84
26 | Cc1nc2sc(C(=O)NCc3ccc4c(c3)OCCO4)c(Br)c2c(C)c1Cl [Compound 39, 3-bromo-5-chloro-N-((2,3-dihydrobenzo[b][1,4]dioxin-6-yl)methyl)-4,6-dimethylthieno[2,3-b]pyridine-2-carboxamide] | > 10 | 
27 | Cc1nc2sc(C(=O)N[C@@H](C)C3CC3)c(-c3cnn(C)c3)c2c(C)c1Cl [Compound 111, (S)-5-chloro-N-(1-cyclopropylethyl)-4,6-dimethyl-3-(1-methyl-1H-pyrazol-4-yl)thieno[2,3-b]pyridine-2-carboxamide] | > 10 | 
28 | COc1ccc(C(C)NC(=O)c2sc3nc(C)c(Cl)c(C)c3c2Br)cc1 (stereo not drawn) [Compound 40, 3-bromo-5-chloro-N-(1-(4-methoxyphenyl)ethyl)-4,6-dimethylthieno[2,3-b]pyridine-2-carboxamide] | > 10 | 
29 | Cc1cc(C)c2c(C)c(C(=O)NCCN3CCOCC3)sc2n1 [Compound 30, 3,4,6-trimethyl-N-(2-morpholinoethyl)thieno[2,3-b]pyridine-2-carboxamide] | > 10 | 
30 | Cc1nc2sc(C(=O)NC3COC3)c(-c3ccccc3)c2c(C)c1Cl [Compound 62, 5-chloro-4,6-dimethyl-N-(oxetan-3-yl)-3-phenylthieno[2,3-b]pyridine-2-carboxamide] | > 10 | 
31 | Cc1nc2sc(C(=O)NC3CCC3)c(-c3cnn(C)c3)c2c(C)c1Cl [Compound 87, 5-chloro-N-cyclobutyl-4,6-dimethyl-3-(1-methyl-1H-pyrazol-4-yl)thieno[2,3-b]pyridine-2-carboxamide] | > 10 | 
